Test results: patent publication US7776851B2, “Use of neurokinin antagonists in the treatment of urinary incontinence” (Novartis AG, priority 2003, dated 2010)

Columns and labels:
conscious guinea pigs = assay: 5-HTP-stimulated micturition (overactive urinary bladder responses) in conscious guinea pigs; format: in vivo, guinea pig; details: for decrease of micturition volume / decrease of voiding frequency: one hour prior to 5-HTP (10 mg/kg s.c.), assessed over 17 hours, mean±SEM
Procedure: In conscious guinea pigs, an experimental paradigm is applied to stimulate micturition through subcutaneous administration of 5-hydroxytryptophan (5-HTP, 10 mg/kg). The measurement of both voiding frequency and micturition volume is used to quantify the effects of the compound of formula II (Belis, et al 1996). Vehicle or the compound of formula II (1 and 3 mg/kg) are dosed orally one hour prior to the stimulation with 5-HTP.
The effects of vehicle and the compound of formula II are assessed over 17 hours in 4 to 8 animals. […] The compound of formula II attenuates the overactive bladder responses upon stimulation with 5-HTP.
The effects are statistically significant at both doses tested (p<0.05; RM ANOVA, post-hoc Tukey test). See also FIG. 1.

[1] = test system: longitudinal muscle-nerve preparations from the guinea-pig urinary bladder; assay: Substance P-stimulated detrusor contractility, organ bath; format: cell-based
Procedure: Detrusor contractility is tested in longitudinal muscle-nerve preparations from the guinea-pig urinary bladder (Mackenzie and Burnstock 1984). In organ bath studies, isometric contractile responses are evoked by cumulative application of substance P (0.1 nM up to 30 μM). Substance P stimulates contractions in a concentration-dependent fashion (pD2=6.68±0.23; mean±SEM; n=5 preparations).

[2] = 5-HTP 10 mg/kg subcutaneous, over 17 hours

Molecule: N[C@@H](Cc1c[nH]c2ccc(O)cc12)C(=O)O [S-HTP, 5-hydroxytryptophan, reference compound]
- increase of micturition volume as compared to control animals (conscious guinea pigs; [2]): 4.5 fold
- increase of voiding frequency as compared to control animals (conscious guinea pigs; [2]): 2.7 fold

Molecule: CN(C(=O)c1cc(C(F)(F)F)cc(C(F)(F)F)c1)[C@@H](/C=C/C(=O)N[C@@H]1CCCCNC1=O)Cc1ccc(Cl)c(Cl)c1 [compound of formula II, (4R)-4-[N′-methyl-N′-(3,5-bistrifluoromethylbenzoyl)amino]-4-(3,4-dichlorobenzyl)-but-2-enoic acid N-[(R)-epsilon-caprolactam-3-yl]-amide]
- decrease of micturition volume (conscious guinea pigs; 1 mg/kg p.o.): 32.9%±4.5%
- decrease of voiding frequency (conscious guinea pigs; 1 mg/kg p.o.): 45.4%±7.1%
- decrease of micturition volume (conscious guinea pigs; 3 mg/kg p.o.): 36.6%±6.2%
- decrease of voiding frequency (conscious guinea pigs; 3 mg/kg p.o.): 26.2%±7.1%
- Schild plot slope ([1]; 10 nM, 100 nM and 1000 nM vs substance P): −0.98
- pA2 (Schild plot analysis), inhibition of substance P-evoked contractile responses ([1]; 10 nM, 100 nM and 1000 nM, competitive, substance P 0.1 nM up to 30 μM cumulative): 7.97

Molecule: substance P [reference compound]
- pD2, stimulation of isometric contractions ([1]; cumulative application 0.1 nM up to 30 μM, mean±SEM, n=5 preparations): 6.68±0.23
